The values below come from ChEMBL document CHEMBL1124218, “Inhibition of murine thymidylate synthase and human dihydrofolate reductase by 5,8-dideaza analogues of folic acid and aminopterin” (J Med Chem, 1988).

Each structure is given as a SMILES string. Where only a bound is given, the exact number is not on record here.

The assay deals with Thymidylate synthase (Mus musculus, UniProt P07607). Nature of the assay: Inhibitory activity against thymidylate synthase isolated from L1210 leukemia cells. The assay is classed as cell-free. The conditions noted are these: read-out: I50.
Chain of Thymidylate synthase (P07607 whole entry): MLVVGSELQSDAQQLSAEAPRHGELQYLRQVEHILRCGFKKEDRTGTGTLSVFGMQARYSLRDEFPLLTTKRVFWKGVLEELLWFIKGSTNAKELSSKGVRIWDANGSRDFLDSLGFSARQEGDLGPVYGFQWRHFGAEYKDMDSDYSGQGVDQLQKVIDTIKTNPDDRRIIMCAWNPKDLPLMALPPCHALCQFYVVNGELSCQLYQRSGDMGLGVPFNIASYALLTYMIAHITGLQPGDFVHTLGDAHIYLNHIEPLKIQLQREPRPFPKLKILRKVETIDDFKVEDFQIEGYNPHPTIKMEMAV
As to `Nc1nc(O)c2cc(CSc3ccc(C(=O)NC(CCC(=O)O)C(=O)O)cc3)ccc2n1` (stereo not drawn), the IC50 is 0.22 µM.

`Nc1nc(O)c2cc(COc3ccc(C(=O)NC(CCC(=O)O)C(=O)O)cc3)ccc2n1` (stereo not drawn): the IC50 amounted to 12 µM.

As to `Nc1nc(O)c2cc(CN(C=O)c3ccc(C(=O)NC(CCC(=O)O)C(=O)O)cc3)ccc2n1` (stereo not drawn), the IC50 was determined as 9.8 µM.

For `C=CCN(Cc1ccc(C(=O)NC(CCC(=O)O)C(=O)O)cc1)c1ccc2nc(N)nc(N)c2c1` (stereo not drawn), the IC50 amounted to 3.2 µM.

On to `C#CCN(Cc1ccc(C(=O)NC(CCC(=O)O)C(=O)O)cc1)c1ccc2nc(N)nc(N)c2c1` (stereo not drawn), for which the IC50 came out at 4.4 µM.

As to `C#CCN(Cc1ccc(C(=O)NC(CCC(=O)O)C(=O)O)cc1)c1ccc2nc(N)nc(O)c2c1` (stereo not drawn), the IC50 was determined as 8.6 µM.

Take `Nc1nc(N)c2cc(CN(C=O)c3ccc(C(=O)NC(CCC(=O)O)C(=O)O)cc3)ccc2n1` (stereo not drawn): the IC50 is > 10 µM.

On to `CN(Cc1ccc2nc(N)nc(N)c2c1)c1ccc(C(=O)NC(CCC(=O)O)C(=O)O)cc1` (stereo not drawn), for which the IC50 turned out to be 0.6 µM.

Consider `Nc1nc(N)c2cc(CNc3ccc(C(=O)NC(CCC(=O)O)C(=O)O)cc3)ccc2n1` (stereo not drawn), for which the IC50 came out at 5 µM.

Consider `CN(Cc1ccc(C(=O)NC(CCC(=O)O)C(=O)O)cc1)c1ccc2nc(N)nc(N)c2c1` (stereo not drawn), for which the IC50 was determined as 0.033 µM.

`CN(Cc1ccc2nc(N)nc(O)c2c1)c1ccc(C(=O)NC(CCC(=O)O)C(=O)O)cc1` (stereo not drawn): the IC50 stood at 0.13 µM.

Consider `Cc1c(NCc2ccc(C(=O)NC(CCC(=O)O)C(=O)O)cc2)ccc2nc(N)nc(O)c12` (stereo not drawn), for which the IC50 came out at 2.2 µM.

On to `Nc1nc(=O)c2cc(NCc3ccc(C(=O)NC(CCC(=O)O)C(=O)O)cc3)ccc2[nH]1` (stereo not drawn), for which the IC50 turned out to be 1.3 µM.

In the case of `Cc1c(NCc2ccc(C(=O)NC(CCC(=O)O)C(=O)O)cc2)ccc2nc(N)nc(N)c12` (stereo not drawn), the IC50 came out at 0.15 µM.

As for `Nc1nc(N)c2c(Cl)c(CNc3ccc(C(=O)NC(CCC(=O)O)C(=O)O)cc3)ccc2n1` (stereo not drawn), the IC50 is 0.19 µM.

Regarding `Nc1nc(N)c2c(Cl)c(NCc3ccc(C(=O)NC(CCC(=O)O)C(=O)O)cc3)ccc2n1` (stereo not drawn), the IC50 worked out at 0.098 µM.

Regarding `Nc1nc(O)c2c(Cl)c(NCc3ccc(C(=O)NC(CCC(=O)O)C(=O)O)cc3)ccc2n1` (stereo not drawn), the IC50 stood at 4 µM.

With `Nc1nc(N)c2cc(NCc3ccc(C(=O)NC(CCC(=O)O)C(=O)O)cc3)ccc2n1` (stereo not drawn), the IC50 came to 0.55 µM.

As for `C=CCN(Cc1ccc(C(=O)NC(CCC(=O)O)C(=O)O)cc1)c1ccc2nc(N)nc(O)c2c1` (stereo not drawn), the IC50 was 6.1 µM.

As for `Nc1nc(N)c2cc(N(C=O)Cc3ccc(C(=O)NC(CCC(=O)O)C(=O)O)cc3)ccc2n1` (stereo not drawn), the IC50 was > 10 µM.

As to `CN(Cc1ccc(C(=O)NC(CCC(=O)O)C(=O)O)cc1)c1ccc2nc(N)nc(O)c2c1` (stereo not drawn), the IC50 was 0.2 µM.

For `Nc1nc(O)c2cc(N(C=O)Cc3ccc(C(=O)NC(CCC(=O)O)C(=O)O)cc3)ccc2n1` (stereo not drawn), the IC50 was 11 µM.

In the case of `Cc1c(N(C)Cc2ccc(C(=O)NC(CCC(=O)O)C(=O)O)cc2)ccc2nc(N)nc(O)c12` (stereo not drawn), the IC50 is 0.7 µM.
